The values below come from patent US8207177B2, “Inhibitors of E1 activating enzymes” (Millennium Pharmaceuticals, Inc., priority 2006, dated 2012).

In the test the target is T1, recombinant human NAE enzyme (Homo sapiens, UniProt Q8TBC4).
T1 construct: His (N); made in house; host or cells: Sf9 insect cells (baculovirus, Bac-to-Bac), purified on Ni-NTA
T1 sequence (Q8TBC4 1-463): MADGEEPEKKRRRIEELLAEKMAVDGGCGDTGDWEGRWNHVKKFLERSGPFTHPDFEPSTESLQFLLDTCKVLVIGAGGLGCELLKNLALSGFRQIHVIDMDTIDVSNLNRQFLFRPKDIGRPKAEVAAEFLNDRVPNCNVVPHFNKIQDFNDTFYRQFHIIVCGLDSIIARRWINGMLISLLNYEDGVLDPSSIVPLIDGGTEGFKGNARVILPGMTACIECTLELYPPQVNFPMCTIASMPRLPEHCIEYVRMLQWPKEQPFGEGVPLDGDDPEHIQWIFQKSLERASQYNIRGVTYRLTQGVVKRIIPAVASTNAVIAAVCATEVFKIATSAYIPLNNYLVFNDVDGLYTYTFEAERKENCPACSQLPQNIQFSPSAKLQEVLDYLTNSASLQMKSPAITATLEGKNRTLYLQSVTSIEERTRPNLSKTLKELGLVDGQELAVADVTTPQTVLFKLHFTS
T1 sequence (Q13564 1-534 partner): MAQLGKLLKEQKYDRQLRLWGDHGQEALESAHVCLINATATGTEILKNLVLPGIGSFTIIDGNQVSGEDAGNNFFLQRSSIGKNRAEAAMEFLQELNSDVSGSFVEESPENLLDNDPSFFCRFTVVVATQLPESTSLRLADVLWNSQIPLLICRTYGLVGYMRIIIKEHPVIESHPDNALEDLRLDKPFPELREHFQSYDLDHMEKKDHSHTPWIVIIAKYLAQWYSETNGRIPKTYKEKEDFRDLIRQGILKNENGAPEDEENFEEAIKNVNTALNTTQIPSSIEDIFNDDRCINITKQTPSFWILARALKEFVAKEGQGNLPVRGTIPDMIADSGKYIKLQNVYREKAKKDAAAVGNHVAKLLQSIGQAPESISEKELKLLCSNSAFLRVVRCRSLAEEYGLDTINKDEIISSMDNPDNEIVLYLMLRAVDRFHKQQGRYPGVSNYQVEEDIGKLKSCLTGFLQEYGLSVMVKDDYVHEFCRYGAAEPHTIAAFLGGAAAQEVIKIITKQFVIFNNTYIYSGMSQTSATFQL
Kind of test: Nedd8-Activating Enzyme (NAE) HTRF Assay. In kind it is biochemical. The following applies: threshold statement: less than or equal to 100 nM; 20 μM ATP, 90 minutes at 24° C. As to the method:
Following manufacturer instructions, baculoviruses were generated with the Bac-to-Bac Expression System (Invitrogen) for the following proteins: untagged NAEα (APPBP1; NP_003896.1), N-terminally His-tagged NAEβ (UBE1C; NP_003959.3), untagged SAEα (SAE1; NP_005491.1), N-terminally His-tagged SAEβ (UBA2; NP_005490.1), N-terminally His-tagged murine UAE (UBE1X; NP_033483). NAEα/His-NAEβ and SAEα/His-SAEβ complexes were generated by co-infection of Sf9 cells, which were harvested after 48 hours. His-mUAE was generated by single infection of Sf9 cells and harvested after 72 hours. Expressed proteins were purified by affinity chromatography (Ni—NTA agarose, Qiagen) using standard buffers. Ubc12 (UBE2M; NP_003960.1), Ubc9 (UBE2I; NP_003336.1), Ubc2 (UBE2A; NP_003327.2) were subcloned into pGEX (Pharmacia) and expressed as N-terminally GST tagged fusion proteins in E. coli. Expressed proteins were purified by conventional affinity chromatography using standard buffers. Nedd8 (NP_006147), Sumo-1 (NP_003343) and Ubiquitin (with optimized codons) were subcloned into pFLAG-2 (Sigma) and expressed as N-terminally Flag tagged fusion proteins in E. coli. Expressed proteins were purified by conventional chromatography using standard buffers. Nedd8-Activating Enzyme (NAE) HTRF Assay. The NAE enzymatic reaction totaled 50 μL and contained 50 mM HEPES (pH 7.5), 0.05% BSA, 5 mM MgCl2, 20 μM ATP, 250 μM GSH, 0.01 μM Ubc12-GST, 0.075 μM Nedd8-Flag and 0.28 nM recombinant human NAE enzyme. The enzymatic reaction mixture, with and without compound inhibitor, was incubated at 24° C. for 90 minutes in a 384-well plate before termination with 25 μL of Stop/Detection buffer (0.1M HEPES pH 7.5, 0.05% Tween20, 20 mM EDTA, 410 mM KF, 0.53 nM Europium-Cryptate labeled monoclonal anti-FLAG M2 antibody (CisBio International) and 8.125 μg/mL PHYCOLINK goat anti-GST allophycocyanin (XL-APC) antibody (Prozyme)). After incubation for 3 hours at 24° C., quantification of the FRET was performed on the Analyst™ HT 96.384 (Molecular Devices).
(TR-FRET usually uses a lanthanide donor and a delayed reading to cut background.)

One may read the IC50 as the midpoint of a concentration-inhibition curve. As for `NS(=O)(=O)/C=C/[C@@H]1C[C@@H](n2ccc3c(N[C@H]4CCc5ccccc54)ncnc32)C[C@@H]1O` [Compound I-73, (E)-2-((1S,2S,4R)-4-{4-[(1S)-2,3-dihydro-1H-inden-1-ylamino]-7H-pyrrolo[2,3-d]pyrimidin-7-yl}-2-hydroxycyclopentyl)ethylenesulfonamide], the half-maximal inhibitory concentration (IC50) is at most 100 nM. The same measure for `NS(=O)(=O)OC[C@@H]1C[C@@H](n2cnc3c(NCc4ccc(Cl)cc4)ncnc32)C[C@@H]1O` [Compound I-23, ((1S,2S,4R)-4-{6-[(4-chlorobenzyl)amino]-9H-purin-9-yl}-2-hydroxycyclopentyl)methyl sulfamate]: at most 100 nM; for `NS(=O)(=O)OC[C@@H]1C[C@@H](n2ccc3c(N[C@H]4CCc5cccc(F)c54)ncnc32)C[C@@H]1O` [Compound I-66, [(1S,2S,4R)-4-(4-{[(1S)-7-fluoro-2,3-dihydro-1H-inden-1-yl]amino}-7H-pyrrolo[2,3-d]pyrimidin-7-yl)-2-hydroxycyclopentyl]methyl sulfamate]: at most 100 nM. The same measure for `CNc1ncnc2c1ccn2[C@@H]1C[C@@H](COS(N)(=O)=O)[C@@H](O)C1` [Compound I-40, {(1S,2S,4R)-2-hydroxy-4-[4-(methylamino)-7H-pyrrolo[2,3-d]pyrimidin-7-yl]-cyclopentyl}methyl sulfamate]: at most 100 nM; for `NS(=O)(=O)OC[C@@H]1C[C@@H](n2ccc3c(N[C@H]4CCc5cc(Br)ccc54)ncnc32)C[C@@H]1O` [Compound I-33, [(1S,2S,4R)-4-(4-{[(1S)-5-bromo-2,3-dihydro-1H-inden-1-yl]amino}-7H-pyrrolo-[2,3-d]pyrimidin-7-yl)-2-hydroxycyclopentyl]methyl sulfamate]: at most 100 nM.

As to `Cc1cc(Cl)ccc1CNc1ncnc2c1ccn2[C@@H]1C[C@@H](COS(N)(=O)=O)[C@@H](O)C1` [Compound I-48, ((1S,2S,4R)-4-{4-[(4-chloro-2-methylbenzyl)amino]-7H-pyrrolo[2,3-d]pyrimidin-7-yl}-2-hydroxycyclopentyl)methyl sulfamate], the IC50 is at most 100 nM. The same measure for `NS(=O)(=O)OC[C@@H]1C[C@@H](n2ccc3c(NCc4cc(Cl)cc(Cl)c4)ncnc32)C[C@@H]1O` [Compound I-16, ((1S,2S,4R)-4-{4-[(3,5-dichlorobenzyl)amino]-7H-pyrrolo[2,3-d]pyrimidin-7-yl}-2-hydroxycyclopentyl)methyl sulfamate]: at most 100 nM. The same measure for `NS(=O)(=O)OC[C@@H]1C[C@@H](n2ccc3c(NCc4ccccc4C(F)(F)F)ncnc32)C[C@@H]1O` [Compound I-47, [(1S,2S,4R)-2-hydroxy-4-(4-{[2-(trifluoromethyl)benzyl]amino}-7H-pyrrolo-[2,3-d]pyrimidin-7-yl)cyclopentyl]methyl sulfamate]: at most 100 nM; for `NS(=O)(=O)OCC[C@@H]1C[C@@H](n2ccc3c(N[C@H]4CCc5ccccc54)ncnc32)C[C@@H]1O` [Compound I-76, 2-((1S,2S,4R)-4-{4-[(1S)-2,3-dihydro-1H-inden-1-ylamino]-7H-pyrrolo[2,3-d]pyrimidin-7-yl}-2-hydroxycyclopentyl)ethyl sulfamate]: at most 100 nM. As to `C[C@]1(O)C[C@H](n2ccc3c(N[C@H]4CCc5ccccc54)ncnc32)C[C@H]1COS(N)(=O)=O` [Compound I-30, ((1S,2S,4R)-4-{4-[(1S)-2,3-dihydro-1H-inden-1-ylamino]-7H-pyrrolo[2,3-d]-pyrimidin-7-yl}-2-hydroxy-2-methylcyclopentyl)methyl sulfamate], the concentration for half-maximal inhibition (IC50) is at most 100 nM.

As to `CC1(C)C[C@H](Nc2ncnc3c2ccn3[C@@H]2C[C@@H](COS(N)(=O)=O)[C@@H](O)C2)c2ccc(Cl)cc21` [Compound I-67, [(1S,2S,4R)-4-(4-{[(1S)-5-chloro-3,3-dimethyl-2,3-dihydro-1H-inden-1-yl]amino)-7H-pyrrolo[2,3-d]pyrimidin-7-yl)-2-hydroxycyclopentyl]methyl sulfamate], the IC50 was at most 100 nM. The same measure for `C[C@@H]1Cc2ccccc2[C@@H]1Nc1ncnc2c1ccn2[C@@H]1C[C@@H](COS(N)(=O)=O)[C@@H](O)C1` [Compound I-81, [(1S,2S,4R)-2-hydroxy-4-(4-{[(1R,2R)-2-methyl-2,3-dihydro-1H-inden-1-yl]amino)-7H-pyrrolo[2,3-d]pyrimidin-7-yl)cyclopentyl]methyl sulfamate]: at most 100 nM; for `CO[C@H]1Cc2ccccc2[C@H]1Nc1ncnc2c1ccn2[C@@H]1C[C@@H](CNS(N)(=O)=O)[C@@H](O)C1` [Compound I-74, N-{[(1S,2S,4R)-2-hydroxy-4-(4-{[(1R,2S)-2-methoxy-2,3-dihydro-1H-inden-1-yl]amino}-7H-pyrrolo[2,3-d]pyrimidin-7-yl)cyclopentyl]methyl}sulfamide]: at most 100 nM; for `NS(=O)(=O)OC[C@@H]1C[C@@H](n2ccc3c(NCc4ccc(Cl)cc4Cl)ncnc32)C[C@@H]1O` [Compound I-19, ((1S,2S,4R)-4-{4-[(2,4-dichlorobenzyl)amino]-7H-pyrrolo[2,3-d]pyrimidin-7-yl}-2-hydroxycyclopentyl)methyl sulfamate]: at most 100 nM.

Take `NS(=O)(=O)OC[C@@H]1C[C@@H](n2ccc3c(N[C@H]4CCc5c(F)cccc54)ncnc32)C[C@@H]1O` [Compound I-61, [(1S,2S,4R)-4-(4-{[(1S)-4-fluoro-2,3-dihydro-1H-inden-1-yl]amino}-7H-pyrrolo[2,3-d]pyrimidin-7-yl)-2-hydroxycyclopentyl]methyl sulfamate]: the IC50 is at most 100 nM. The same measure for `COC[C@@H]1Cc2ccccc2[C@@H]1Nc1ncnc2c1ccn2[C@@H]1C[C@@H](COS(N)(=O)=O)[C@@H](O)C1` [Compound I-79, [(1S,2S,4R)-2-hydroxy-4-(4-{[(1R,2R)-2-(methoxymethyl)-2,3-dihydro-1H-inden-1-yl]amino}-7H-pyrrolo[2,3-d]pyrimidin-7-yl)cyclopentyl]methyl sulfamate]: at most 100 nM; for `NS(=O)(=O)OC[C@@H]1C[C@@H](n2ccc3c(NCc4cccc5ccccc45)ncnc32)C[C@@H]1O` [Compound I-38, ((1S,2S,4R)-2-hydroxy-4-{4-[(1-naphthylmethyl)amino]-7H-pyrrolo[2,3-d]-pyrimidin-7-yl}cyclopentyl)methyl sulfamate]: at most 100 nM. The same measure for `Nc1ncnc2c1ccn2[C@@H]1C[C@@H](COS(N)(=O)=O)[C@@H](O)C1` [Compound I-18, [(1S,2S,4R)-4-(4-amino-7H-pyrrolo[2,3-d]pyrimidin-7-yl)-2-hydroxycyclopentyl]methyl sulfamate]: at most 100 nM; for `C[C@@H](c1ccccc1)N(C)c1ncnc2c1ccn2[C@@H]1C[C@@H](COS(N)(=O)=O)[C@@H](O)C1` [Compound I-3, [(1S,2S,4R)-2-hydroxy-4-(4-{methyl[(1S)-1-phenylethyl]amino}-7H-pyrrolo-[2,3-d]pyrimidin-7-yl)cyclopentyl]methyl sulfamate]: at most 100 nM.
